Reference: patent US4214091A, “Antibiotic No. 2-200 and process for producing thereof” (Chugai Seiyaku Kabushiki Kaisha, priority 1977, dated 1980)
Converted amounts (≈) assume the structure as drawn. Read-outs that look alike come from different tables or passages of the source.

Key:
[1] = system: mutant of Pseudomonus aeroginosa, for example, G-75, M-57740; assay: growth inhibition of β-lactam-sensitive mutant; assay type: cell-based; details: mutant sensitive to a β-lactam antibiotic
Description: The present inventors further continued their studies and succeeded in isolating from a culture of actinomycete an effective substance as a crystal, which was subjected to X-ray diffractometry to determine its structure. […] This invention is a development of studies based on these findings.

[2] = system: 5-week-old ddY male mice; details: mouse, in vivo
Experimental: The crystal of the antibiotic No. 2-200 obtained in Example 4 was floated in sterile distilled water, mixed with 5% caustic soda to adjust the pH to 7.0, and dissolved to make a solution. The solution was adminstered to 5-week-old ddY male mice to examine its actuate toxicity as well as delayed toxicity. During 10 days that followed the administration, the weight of each mouse, its food intake and water intake were measured.

[3] = system: Proteus mirabilis 1287; assay: MIC by agar plate dilution method; assay type: cell-based; details: 37° C., 24 hours
Experimental: (§1) The test organisms were incubated by agar plate dilution method at 37° C. for 24 hours, after which their growth was observed. The test organisms were incubated on an NB medium (product of Eiken Kagaku) at 37° C. overnight, and each culture obtained was diluted 10^3 - to 10^4 -fold and stamped on an agar plate. The following agar plate media were used:
(§2) NA: nutrient agar (product of Eiken Kagaku)
(§3) NA+G6P: glucose-6-phosphoric acid (50 μg/ml) plus nutrient agar
(§4) Anti-3A: antibiotic medium No. 3 agar (product of Difco)
(§5) MHA: Mueller Hinton Agar (product of Eiken Kagaku)

[4] = system: Bacillus subtilis PCI-219; assay: MIC by agar plate dilution method; assay type: cell-based; details: 37° C., 24 hours
Experimental: as §1, §2, §3, §4, §5

[5] = system: Serratia marrcescens T-50; assay: MIC by agar plate dilution method; assay type: cell-based; details: for MIC: Serratia
Experimental: as §1, §2, §3, §4, §5

[6] = system: Klebsiella pneumoniae 15c; assay: MIC by agar plate dilution method; assay type: cell-based; details: 24 h, read-out: Minimum inhibitory concentration
Experimental: as §1, §2, §3, §4, §5

[7] = system: Pseudomonas aeruginosa G-75; assay: MIC by agar plate dilution method; assay type: cell-based; details: 37° C., 24 hours
Experimental: as §1, §2, §3, §4, §5

[8] = system: Proteus mirabilis 9'; assay: MIC by agar plate dilution method; assay type: cell-based; details: 24 h, 37° C., read-out: Minimum inhibitory concentration
Experimental: as §1, §2, §3, §4, §5

[9] = system: Staphylococcus epidermidis T0-3; assay: MIC by agar plate dilution method; assay type: cell-based; details: T03, 24 h, 37° C., read-out: Minimum inhibitory concentration
Experimental: as §1, §2, §3, §4, §5

[10] = system: Serratia marrcescens FU-111; assay: MIC by agar plate dilution method; assay type: cell-based; details: FU111, 24 h, read-out: Minimum inhibitory concentration
Experimental: as §1, §2, §3, §4, §5

[11] = system: Escherichia coli No. 9; assay: MIC by agar plate dilution method; assay type: cell-based; details: NO.9, 24 h, 37° C., read-out: Minimum inhibitory concentration
Experimental: as §1, §2, §3, §4, §5

[12] = system: Escherichia coli NIHJ; assay: MIC by agar plate dilution method; assay type: cell-based; details: 24 h, 37° C., read-out: Minimum inhibitory concentration
Experimental: as §1, §2, §3, §4, §5

[13] = system: Klebsiella pneumoniae 3K25; assay: MIC by agar plate dilution method; assay type: cell-based; details: 3K25, 24 h, 37° C., read-out: Minimum inhibitory concentration
Experimental: as §1, §2, §3, §4, §5

[14] = system: Staphylococcus aureus A-5; assay: MIC by agar plate dilution method; assay type: cell-based; details: A5, 24 h, 37° C., read-out: Minimum inhibitory concentration
Experimental: as §1, §2, §3, §4, §5

[15] = system: Staphylococcus aureus 222; assay: MIC by agar plate dilution method; assay type: cell-based; details: Staphylococcus aureus, 222, 24 h, 37° C., read-out: Minimum inhibitory concentration
Experimental: as §1, §2, §3, §4, §5

[16] = system: Bacillus cereus; assay: MIC by agar plate dilution method; assay type: cell-based; details: 37° C., 24 hours
Experimental: as §1, §2, §3, §4, §5

[17] = system: Salmonella typhi TANAKA; assay: MIC by agar plate dilution method; assay type: cell-based; details: Salmonella enterica, 24 h
Experimental: as §1, §2, §3, §4, §5

[18] = system: Fusobacterium necroforum S-45; assay: MIC, GAM agar, anaerobic; assay type: cell-based; details: S45, 37° C., 40 hours, inoculum 10^6/ML, read-out: Minimum inhibitory concentration (MIC)
Experimental: (§6) Minimum inhibitory concentration (MIC) for gram
(§7) Note: incubated at 37° C. for 40 hours on GAM agar medium (product
(§8) of Nippon Seiyaku) using anaerobic incubator. Inoculated with 10^6

[19] = system: Bacteroides fragilis V-7; assay: MIC, GAM agar, anaerobic; assay type: cell-based; details: V7, 40 h, read-out: Minimum inhibitory concentration (MIC)
Experimental: as §6, §7, §8

[20] = system: Fusobacterium glutinosum 1006; assay: MIC, GAM agar, anaerobic; assay type: cell-based; details: 37° C., 40 hours, inoculum 10^6/ML, read-out: Minimum inhibitory concentration (MIC)
Experimental: as §6, §7, §8

[21] = system: Bacteroides fragilis V-6; assay: MIC, GAM agar, anaerobic; assay type: cell-based; details: V6, 40 h, read-out: Minimum inhibitory concentration (MIC)
Experimental: as §6, §7, §8

[22] = system: Bacteroides fragilis V-8; assay: MIC, GAM agar, anaerobic; assay type: cell-based; details: V8, 40 h, read-out: Minimum inhibitory concentration (MIC)
Experimental: as §6, §7, §8

[23] = NA + G6P (50 μg/ml), 37° C., 24 hours

With `C=CC(C)=CC1(C)SC(=O)C(C)=C1O` (single isomer, unassigned) [No. 2-200] the inhibition of growth [1] was “strongly inhibits the growth”, the delayed toxicity [2] was “entirely free from delayed toxicity” and the Minimum inhibitory concentration ([3]; Anti-3A) was 50 µg/mL (≈ 238 µM). The Minimum inhibitory concentration ([3]; MHA) was 50 µg/mL (≈ 238 µM), the Minimum inhibitory concentration ([3]; NA + G6P (50 μg/ml)) was 50 µg/mL and the MIC ([3]; Proteus mirabilis, 1287, NA, read-out: Minimum inhibitory concentration) was 50 µg/mL (≈ 238 µM). It also gave a Minimum inhibitory concentration ([4]; Anti-3A) of 50 µg/mL (≈ 238 µM), an MIC ([4]; Bacillus subtilis, PCI219, NA, read-out: Minimum inhibitory concentration) of 50 µg/mL (≈ 238 µM) and a Minimum inhibitory concentration ([4]; MHA) of 50 µg/mL (≈ 238 µM). For the same compound, the Minimum inhibitory concentration ([4]; NA + G6P (50 μg/ml)) was 50 µg/mL, the Minimum inhibitory concentration [5, 23] was 50 µg/mL and the MIC ([5]; T50, 24 h, read-out: Minimum inhibitory concentration, Anti-3A, 37° C.) was 12.5 µg/mL (≈ 59.4 µM). For the same compound, the MIC ([5]; T50, 24 h, read-out: Minimum inhibitory concentration, MHA, 37° C.) was 1.56 µg/mL (≈ 7.42 µM), the MIC ([5]; T50, NA, 37° C., 24 hours, read-out: Minimum inhibitory concentration) was 50 µg/mL (≈ 238 µM) and the MIC ([6]; Anti-3A, 37° C., 24 hours) was 50 µg/mL (≈ 238 µM). For the same compound, the MIC [6, 23] was 100 µg/mL, the MIC ([6]; NA, 37° C., 24 hours) was 100 µg/mL (≈ 476 µM) and the MIC [6] was 12.5 µg/mL (≈ 59.4 µM). It also gave a Minimum inhibitory concentration ([7]; Anti-3A) of 6.25 µg/mL (≈ 29.7 µM), a Minimum inhibitory concentration ([7]; MHA) of 6.25 µg/mL (≈ 29.7 µM) and a Minimum inhibitory concentration ([7]; NA + G6P (50 μg/ml)) of 6.25 µg/mL. The MIC ([7]; Pseudomonas aeruginosa, G75, NA, read-out: Minimum inhibitory concentration) was 6.25 µg/mL (≈ 29.7 µM), the MIC ([8]; Anti-3A) was 100 µg/mL (≈ 476 µM) and the MIC ([8]; MHA) was 200 µg/mL (≈ 951 µM). The MIC ([8]; NA + G6P (50 μg/ml)) was 50 µg/mL, the MIC ([8]; NA) was 50 µg/mL (≈ 238 µM) and the MIC ([9]; Anti-3A) was 100 µg/mL (≈ 476 µM). It also gave an MIC ([9]; MHA) of 50 µg/mL (≈ 238 µM), an MIC ([9]; NA + G6P (50 μg/ml)) of 50 µg/mL and an MIC ([9]; NA) of 50 µg/mL (≈ 238 µM). The MIC ([10]; Anti-3A, 37° C., 24 hours) was 25 µg/mL (≈ 119 µM), the MIC [10, 23] was 50 µg/mL and the MIC ([10]; NA, 37° C., 24 hours) was 50 µg/mL (≈ 238 µM). For the same compound, the MIC [10] was 6.25 µg/mL (≈ 29.7 µM), the MIC ([11]; Anti-3A) was 100 µg/mL (≈ 476 µM) and the MIC ([11]; MHA) was 50 µg/mL (≈ 238 µM). For the same compound, the MIC ([11]; NA + G6P (50 μg/ml)) was 50 µg/mL, the MIC ([11]; NA) was 50 µg/mL (≈ 238 µM) and the MIC ([12]; Anti-3A) was 200 µg/mL (≈ 951 µM). The MIC ([12]; MHA) was 50 µg/mL (≈ 238 µM), the MIC ([12]; NA + G6P (50 μg/ml)) was 100 µg/mL and the MIC ([12]; NA) was 200 µg/mL (≈ 951 µM). For the same compound, the MIC ([13]; Anti-3A) was 50 µg/mL (≈ 238 µM), the MIC ([13]; MHA) was 50 µg/mL (≈ 238 µM) and the MIC ([13]; NA + G6P (50 μg/ml)) was 100 µg/mL. It also gave an MIC ([13]; NA) of 200 µg/mL (≈ 951 µM), an MIC ([14]; Anti-3A) of 25 µg/mL (≈ 119 µM) and an MIC ([14]; MHA) of 50 µg/mL (≈ 238 µM). The MIC ([14]; NA + G6P (50 μg/ml)) was 25 µg/mL, the MIC ([14]; NA) was 50 µg/mL (≈ 238 µM) and the MIC ([15]; Anti-3A) was over 400 µg/mL. The MIC ([15]; MHA) was 100 µg/mL (≈ 476 µM), the MIC ([15]; NA + G6P (50 μg/ml)) was at least 400 µg/mL and the MIC ([15]; NA) was over 400 µg/mL. The Minimum inhibitory concentration ([16]; Anti-3A) was 50 µg/mL (≈ 238 µM), the MIC ([16]; Bacillus cereus, NA, read-out: Minimum inhibitory concentration) was 50 µg/mL (≈ 238 µM) and the Minimum inhibitory concentration ([16]; MHA) was 50 µg/mL (≈ 238 µM). It also gave a Minimum inhibitory concentration ([16]; NA + G6P (50 μg/ml)) of 50 µg/mL, an MIC ([17]; read-out: Minimum inhibitory concentration, Anti-3A, 37° C.) of 12.5 µg/mL (≈ 59.4 µM) and an MIC ([17]; read-out: Minimum inhibitory concentration, MHA, 37° C.) of 3.12 µg/mL (≈ 14.8 µM). For the same compound, the MIC ([17]; read-out: Minimum inhibitory concentration, NA + G6P (50 μg/ml), 37° C.) was 12.5 µg/mL, the MIC ([17]; read-out: Minimum inhibitory concentration, NA, 37° C.) was 12.5 µg/mL (≈ 59.4 µM) and the MIC [18] was 3.12 µg/mL (≈ 14.8 µM). It also gave an MIC [19] of 12.5 µg/mL (≈ 59.4 µM), an MIC [20] of 100 µg/mL (≈ 476 µM) and an MIC [21] of 3.12 µg/mL (≈ 14.8 µM). It also gave an MIC [22] of 6.25 µg/mL (≈ 29.7 µM).
